Results on 33 molecules are retold here after patent US9150577B2, “Heterocyclic compounds containing an indole core” (Boehringer Ingelheim International GmbH, priority 2009, dated 2015).

The structures appear in SMILES notation.

The target of the assay is Human RSK2 (Homo sapiens (Human), UniProt P51812). Kind of assay: Human RSK2 assay (Kinase Glo Plus, residual ATP).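 Further: recombinant human RSK2 phosphorylating a substrate peptide, 90 min at 28 °C, leftover ATP read by luminescence, RLU scaled between no-kinase background and uninhibited kinase controls, 4-parameter fit.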 In kind it is biochemical.
Human RSK2, sequence (P51812 whole entry): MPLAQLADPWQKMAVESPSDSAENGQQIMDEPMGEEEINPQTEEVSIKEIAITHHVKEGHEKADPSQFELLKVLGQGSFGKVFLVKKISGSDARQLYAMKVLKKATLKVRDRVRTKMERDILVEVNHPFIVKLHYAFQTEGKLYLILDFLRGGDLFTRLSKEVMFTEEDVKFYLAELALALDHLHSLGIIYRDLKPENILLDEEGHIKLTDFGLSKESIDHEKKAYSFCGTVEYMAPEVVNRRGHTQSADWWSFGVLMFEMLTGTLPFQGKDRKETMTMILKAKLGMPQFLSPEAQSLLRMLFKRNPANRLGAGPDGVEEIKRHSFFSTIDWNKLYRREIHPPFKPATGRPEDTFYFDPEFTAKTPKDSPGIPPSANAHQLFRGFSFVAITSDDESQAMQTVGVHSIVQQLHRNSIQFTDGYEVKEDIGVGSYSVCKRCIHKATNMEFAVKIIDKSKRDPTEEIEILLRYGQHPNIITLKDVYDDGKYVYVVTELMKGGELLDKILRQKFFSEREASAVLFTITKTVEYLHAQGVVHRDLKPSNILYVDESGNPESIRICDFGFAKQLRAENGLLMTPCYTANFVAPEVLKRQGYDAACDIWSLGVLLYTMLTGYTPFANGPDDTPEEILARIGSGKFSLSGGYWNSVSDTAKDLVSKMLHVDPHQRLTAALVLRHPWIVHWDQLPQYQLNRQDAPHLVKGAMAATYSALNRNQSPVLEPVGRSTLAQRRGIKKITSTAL

On to `CC(C)n1c(NC(=O)c2ccc3cc4n(c3c2)C(C)CNC4=O)nc2ccccc21` (stereo not drawn) [Example 74, 4-methyl-1-oxo-N-[1-(propan-2-yl)-1H-benzimidazol-2-yl]-1,2,3,4-tetrahydropyrazino[1,2-a]indole-7-carboxamide], for which the IC50 (usually the midpoint of a concentration-inhibition curve) amounted to 7.3 nM.
With `O=C(Nc1cnn(Cc2ccccc2)c1)c1ccc2cc3n(c2c1)CC1(CC1)CNC3=O` [Example 125, N-(1-benzyl-1H-pyrazol-4-yl)-1′-oxo-2′,3′-dihydro-1′H-spiro[cyclopropane-1,4′-[1,4]diazepino[1,2-a]indole]-8′-carboxamide], the IC50 worked out at 11 nM.
Consider `CC1CCNC(=O)c2cc3ccc(C(=O)Nc4cccnc4)cc3n21` (stereo not drawn) [Example 10, 5-methyl-1-oxo-N-(pyridin-3-yl)-2,3,4,5-tetrahydro-1H-[1,4]diazepino[1,2-a]indole-8-carboxamide], for which the IC50 was 41 nM.
With `CN(C)CCCn1c(NC(=O)c2ccc3cc4n(c3c2)CC2(CCC2)CNC4=O)nc2ccccc21` [Example 97, N-{1-[3-(dimethylamino)propyl]-1H-benzimidazol-2-yl}-1′-oxo-2′,3′-dihydro-1′H-spiro[cyclobutane-1,4′-[1,4]diazepino[1,2-a]indole]-8′-carboxamide], the IC50 was determined as 11 nM.
To `CC1CCNC(=O)c2cc3ccc(C(=O)Nc4cnn(C)c4)cc3n21` (stereo not drawn) [Example 164, 5-methyl-N-(1-methyl-1H-pyrazol-4-yl)-1-oxo-2,3,4,5-tetrahydro-1H-[1,4]diazepino[1,2-a]indole-8-carboxamide] belongs 10 nM; to `Cc1ccc2[nH]c(NC(=O)c3ccc4cc5n(c4c3)CCCNC5=O)nc2c1` [Example 39, N-(5-methyl-1H-benzimidazol-2-yl)-1-oxo-2,3,4,5-tetrahydro-1H-[1,4]diazepino[1,2-a]indole-8-carboxamide], 3 nM.
Take `CN(C)CCn1cc(NC(=O)c2ccc3cc4n(c3c2)CCCNC4=O)cn1` [Example 119, N-{1-[2-(dimethylamino)ethyl]-1H-pyrazol-4-yl}-1-oxo-2,3,4,5-tetrahydro-1H-[1,4]diazepino[1,2-a]indole-8-carboxamide]: the IC50 stood at 120 nM.
Consider `CN(C)CCCn1c(NC(=O)c2ccc3cc4n(c3c2)C(C)(C)CNC4=O)nc2ccccc21` [Example 98, N-{1-[3-(dimethylamino)propyl]-1H-benzimidazol-2-yl}-4,4-dimethyl-1-oxo-1,2,3,4-tetrahydropyrazino[1,2-a]indole-7-carboxamide], for which the IC50 is 0.38 nM.
For the molecule `Cc1cc(NC(=O)c2ccc3cc4n(c3c2)[C@@H](C)[C@@H](C)NC4=O)no1` [Example 172, (3R,4S)-3,4-dimethyl-N-(5-methyl-1,2-oxazol-3-yl)-1-oxo-1,2,3,4-tetrahydropyrazino[1,2-a]indole-7-carboxamide], the IC50 is 1100 nM.
To `COCCn1cc(NC(=O)c2ccc3cc4n(c3c2)CCCNC4=O)cn1` [Example 38, N-[1-(2-methoxyethyl)-1H-pyrazol-4-yl]-1-oxo-2,3,4,5-tetrahydro-1H-[1,4]diazepino[1,2-a]indole-8-carboxamide] belongs 19 nM.
Take `Cc1cc(NC(=O)c2ccc3cc4n(c3c2)C(C)CCNC4=O)no1` (stereo not drawn) [Example 159, 5-methyl-N-(5-methyl-1,2-oxazol-3-yl)-1-oxo-2,3,4,5-tetrahydro-1H-[1,4]diazepino[1,2-a]indole-8-carboxamide]: the concentration for half-maximal inhibition (IC50) is 12 nM.
With `O=C(Nc1cc(-c2cccnc2)no1)c1ccc2cc3n(c2c1)CCCNC3=O` [Example 210, 1-oxo-N-[3-(pyridin-3-yl)-1,2-oxazol-5-yl]-2,3,4,5-tetrahydro-1H-[1,4]diazepino[1,2-a]indole-8-carboxamide], the IC50 turned out to be 30 nM.
For the molecule `C[C@H]1CCNC(=O)c2cc3ccc(C(=O)Nc4cnn(Cc5ccccc5)c4)cc3n21` [Example 144, (5S)-N-(1-benzyl-1H-pyrazol-4-yl)-5-methyl-1-oxo-2,3,4,5-tetrahydro-1H-[1,4]diazepino[1,2-a]indole-8-carboxamide], the IC50 was 80 nM.
For `O=C(Nc1nc2cc(C(F)(F)F)ccc2[nH]1)c1ccc2cc3n(c2c1)CCCNC3=O` [Example 43, 1-oxo-N-[5-(trifluoromethyl)-1H-benzimidazol-2-yl]-2,3,4,5-tetrahydro-1H-[1,4]diazepino[1,2-a]indole-8-carboxamide], the IC50 came out at 24 nM.
With `Cc1ccc(-c2cc(NC(=O)c3ccc4cc5n(c4c3)CCCNC5=O)on2)cc1` [Example 199, N-[3-(4-methylphenyl)-1,2-oxazol-5-yl]-1-oxo-2,3,4,5-tetrahydro-1H-[1,4]diazepino[1,2-a]indole-8-carboxamide], the IC50 came to 115 nM.
`C[C@@H]1CNC(=O)c2cc3ccc(C(=O)Nc4cccnc4)cc3n2[C@H]1C` (relative stereo) [Example 151, Trans-4,5-dimethyl-1-oxo-N-(pyridin-3-yl)-2,3,4,5-tetrahydro-1H-[1,4]diazepino[1,2-a]indole-8-carboxamide]: the IC50 amounted to 1100 nM.
Regarding `Cc1cc(NC(=O)c2ccc3cc4n(c3c2)CC(C)(C)CNC4=O)no1` [Example 157, 4,4-dimethyl-N-(5-methyl-1,2-oxazol-3-yl)-1-oxo-2,3,4,5-tetrahydro-1H-[1,4]diazepino[1,2-a]indole-8-carboxamide], the IC50 turned out to be 1800 nM.
For `CC(C)n1ncc2cc(NC(=O)c3ccc4cc5n(c4c3)[C@@H](C)[C@@H](C)NC5=O)cnc21` (relative stereo) [Example 18, cis-3,4-dimethyl-1-oxo-N-[1-(propan-2-yl)-1H-pyrazolo[3,4-b]pyridin-5-yl]-1,2,3,4-tetrahydropyrazino[1,2-a]indole-7-carboxamide], the IC50 was found to be 8.1 nM.
For `O=C(Nc1cc(C(F)(F)F)no1)c1ccc2cc3n(c2c1)CCCNC3=O` [Example 207, 1-oxo-N-[3-(trifluoromethyl)-1,2-oxazol-5-yl]-2,3,4,5-tetrahydro-1H-[1,4]diazepino[1,2-a]indole-8-carboxamide], the IC50 amounted to 85 nM.
With `C[C@@H]1CCNC(=O)c2cc3ccc(C(=O)Nc4cnn(Cc5ccccc5)c4)cc3n21` [Example 143, (5R)-N-(1-benzyl-1H-pyrazol-4-yl)-5-methyl-1-oxo-2,3,4,5-tetrahydro-1H-[1,4]diazepino[1,2-a]indole-8-carboxamide], the IC50 came to 0.71 nM.
In the case of `O=C(Nc1ccccc1)c1ccc2cc3n(c2c1)CCCNC3=O` [Example 178, 1-oxo-N-phenyl-2,3,4,5-tetrahydro-1H-[1,4]diazepino[1,2-a]indole-8-carboxamide] it was 290 nM; in that of `Cc1noc(NC(=O)c2ccc3cc4n(c3c2)CCCNC4=O)c1Cl` [Example 194, N-(4-chloro-3-methyl-1,2-oxazol-5-yl)-1-oxo-2,3,4,5-tetrahydro-1H-[1,4]diazepino[1,2-a]indole-8-carboxamide], 3300 nM; in that of `O=C(Nc1cc(-c2ccc(F)cc2)on1)c1ccc2cc3n(c2c1)CCCNC3=O` [Example 184, N-[5-(4-fluorophenyl)-1,2-oxazol-3-yl]-1-oxo-2,3,4,5-tetrahydro-1H-[1,4]diazepino[1,2-a]indole-8-carboxamide], 155 nM.
Regarding `Cc1cccc(-c2cc(NC(=O)c3ccc4cc5n(c4c3)CCCNC5=O)on2)c1` [Example 200, N-[3-(3-methylphenyl)-1,2-oxazol-5-yl]-1-oxo-2,3,4,5-tetrahydro-1H-[1,4]diazepino[1,2-a]indole-8-carboxamide], the IC50 is 160 nM.
In the case of `CN(C)CCCn1c(NC(=O)c2ccc3cc4n(c3c2)CC(C)(C)CNC4=O)nc2cc(Cl)ccc21` [Example 50, N-{5-chloro-1-[3-(dimethylamino)propyl]-1H-benzimidazol-2-yl}-4,4-dimethyl-1-oxo-2,3,4,5-tetrahydro-1H-[1,4]diazepino[1,2-a]indole-8-carboxamide], the IC50 was 34 nM.
With `CC(C)(CO)c1cc(NC(=O)c2ccc3cc4n(c3c2)CCCNC4=O)on1` [Example 208, N-[3-(1-hydroxy-2-methylpropan-2-yl)-1,2-oxazol-5-yl]-1-oxo-2,3,4,5-tetrahydro-1H-[1,4]diazepino[1,2-a]indole-8-carboxamide], the IC50 was found to be 96 nM.
Regarding `CCc1cc(NC(=O)c2ccc3cc4n(c3c2)CCCNC4=O)no1` [Example 181, N-(5-ethyl-1,2-oxazol-3-yl)-1-oxo-2,3,4,5-tetrahydro-1H-[1,4]diazepino[1,2-a]indole-8-carboxamide], the IC50 is 34.5 nM.
Take `Cc1cc(NC(=O)c2ccc3cc4n(c3c2)[C@@H](C)CNC4=O)no1` [Example 132, (4S)-4-methyl-N-(5-methyl-1,2-oxazol-3-yl)-1-oxo-1,2,3,4-tetrahydropyrazino[1,2-a]indole-7-carboxamide]: the IC50 was found to be 495 nM.
Turning to `C[C@@H]1CNC(=O)c2cc3ccc(C(=O)Nc4cnn(Cc5ccccc5)c4)cc3n2[C@H]1C` [Example 137, (4R,5S)-N-(1-benzyl-1H-pyrazol-4-yl)-trans-4,5-dimethyl-1-oxo-2,3,4,5-tetrahydro-1H-[1,4]diazepino[1,2-a]indole-8-carboxamide], the IC50 was determined as 43.5 nM.
For `CC1CCNC(=O)c2cc3ccc(C(=O)Nc4cc(C(C)(C)C)on4)cc3n21` (stereo not drawn) [Example 160, N-(5-tert-butyl-1,2-oxazol-3-yl)-5-methyl-1-oxo-2,3,4,5-tetrahydro-1H-[1,4]diazepino[1,2-a]indole-8-carboxamide], the IC50 is 32 nM.
On to `Cn1c(NC(=O)c2ccc3cc4n(c3c2)CC(C)(C)CNC4=O)nc2ccccc21` [Example 60, 4,4-dimethyl-N-(1-methyl-1H-benzimidazol-2-yl)-1-oxo-2,3,4,5-tetrahydro-1H-[1,4]diazepino[1,2-a]indole-8-carboxamide], for which the IC50 was 20 nM.
As to `CC(C)n1ncc2cc(NC(=O)c3ccc4cc5n(c4c3)C(C)CCNC5=O)cnc21` (stereo not drawn) [Example 162, 5-methyl-1-oxo-N-[1-(propan-2-yl)-1H-pyrazolo[3,4-b]pyridin-5-yl]-2,3,4,5-tetrahydro-1H-[1,4]diazepino[1,2-a]indole-8-carboxamide], the IC50 is 19 nM.
Turning to `C[C@H]1NC(=O)c2cc3ccc(C(=O)Nc4nc5ccccc5n4CCCN(C)C)cc3n2[C@H]1C` (relative stereo) [Example 90, N-{1-[3-(dimethylamino)propyl]-1H-benzimidazol-2-yl}-cis-3,4-dimethyl-1-oxo-1,2,3,4-tetrahydropyrazino[1,2-a]indole-7-carboxamide], the half-maximal inhibitory concentration (IC50) worked out at 2.1 nM.
